# Tested on: keratinocytes
# Experiment: Cell viability of keratinocytes after cryopreservation in 10% DMSO in RPMI (alamarBlue)
# Type: cell-based
# Conditions: keratinocytes cryopreserved in vials or culture plates in 10% DMSO in RPMI
# Experimental: In the results discussed below, measurement of Cell Viability and Proliferation in FIGS. 1-4 employed AlamarBlue™ by measuring the oxidation/reduction reactions that take place within cells. AlamarBlue™ was added directly to the plates containing cultured cells in culture medium and incubated for 3 hours at 37° C. Upon reduction, AlamarBlue™ changes color and this color change can be measured and quantified. The culture plates were read using a Gemini EM fluorescent microplate reader ([…]) at an excitation wavelength of 544 nm and an emission wavelength of 590 nm. […] Keratinocytes were cryopreserved in vials or in culture plates in 10% DMSO in RPMI. Metabolic activity was measured immediately after thawing and for several days post thaw. Cell viability (in percent of untreated controls) was calculated as the mean (±SEM) of 120 replicates.
compound,measurement,value
"C[S+](C)[O-] [DMSO, dimethyl sulfoxide]",cell yields after cryopreservation (cell viability in percent of untreated controls),below 50%

# From patent publication US10687525B2, “Enhancement of cell cryopreservation with glycolipids” (TISSUE TESTING TECHNOLOGIES LLC, priority 2016, dated 2020)
